According to publication PMC10568461, “A pilot study of cerebral metabolism and serotonin 5-HT2A receptor occupancy in rats treated with the psychedelic tryptamine DMT in conjunction with the MAO inhibitor harmine” (Frontiers in Pharmacology, 2023):

Tests used:
[1] = target: serotonin 5-HT2A receptors; parameters: method as in ref Lyon et al., 1988; Pierce and Peroutka, 1989; McKenna et al., 1990; Keiser et al., 2009; Ray, 2010; details: ref Lyon et al., 1988, Pierce and Peroutka, 1989, McKenna et al., 1990, Keiser et al., 2009, Ray, 2010, cited from earlier work
5-HT2C receptors = target: 5-HT2C receptors; parameters: method as in ref Lyon et al., 1988; Pierce and Peroutka, 1989; McKenna et al., 1990; Keiser et al., 2009; Ray, 2010; details: ref Lyon et al., 1988; Pierce and Peroutka, 1989; McKenna et al., 1990; Keiser et al., 2009; Ray, 2010; cited from earlier work
[2] = target: T1, serotonin 5-HT2A receptors (Rattus norvegicus, UniProt P14842); experiment: Ex vivo occupancy at frontal cortex 5-HT2A receptors with [^18F]MH.MZ (experiment 2); format: in vivo; details: Experiment 2, [^18F]MH.MZ
T1 construct: from tissue; host or cells: rat frontal cortex (living rat brain, measured ex vivo after in vivo radioligand injection)
T1 sequence (P14842 whole entry): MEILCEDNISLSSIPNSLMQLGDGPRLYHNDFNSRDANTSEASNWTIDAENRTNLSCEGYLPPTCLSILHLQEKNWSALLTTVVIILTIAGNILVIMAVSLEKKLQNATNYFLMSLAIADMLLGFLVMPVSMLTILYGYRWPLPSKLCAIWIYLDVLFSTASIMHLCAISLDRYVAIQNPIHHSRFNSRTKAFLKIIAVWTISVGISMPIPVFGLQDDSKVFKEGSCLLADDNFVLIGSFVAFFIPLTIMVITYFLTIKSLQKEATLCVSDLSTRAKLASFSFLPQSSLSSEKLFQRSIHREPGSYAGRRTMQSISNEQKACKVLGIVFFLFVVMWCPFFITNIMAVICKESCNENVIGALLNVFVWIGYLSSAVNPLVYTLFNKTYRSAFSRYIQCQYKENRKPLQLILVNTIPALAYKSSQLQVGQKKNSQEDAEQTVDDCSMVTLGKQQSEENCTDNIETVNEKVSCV
Description: Animals were lightly sedated using 2% isoflurane in pure oxygen at 20 min post DMT injection, whereupon they received a 0.2 mL intravenous injection of [^18F]MH.MZ diluted in saline to a radiochemical concentration of approximately 20 MBq/mL. Rats then returned to their home cage with withdrawal of anesthesia. After 45 min, rats were sacrificed by decapitation, and the brains dissected into cerebellum and frontal cortex samples for radioactivity measurement and chemical analysis, thus 65 min after harmine + DMT. The gamma-activity in weighed samples of cerebellum and frontal cortex regions was counted with a Packard Cobra gamma counter (GMI, Ramsey, Minnesota, US), as previously reported ([Bærentzen et al., 2019]). As with [^3H]ketanserin, the occupancy at [^18F]MH.MZ binding sites in frontal cortex was calculated from the specific binding ratio (cortex-cerebellum)/cerebellum) measured in the saline control and treatment groups.

brain 5-HT2A receptors = details: calculated; humans, oral DMT and harmine; ref Koeck, 2015; cited from earlier work
brain glucose metabolism = experiment: [^18F]FDG-PET of cerebral glucose metabolism (experiment 1); format: in vivo, rat; details: for [^18F]FDG-PET SUV normalized to whole-brain uptake (SUVglob): 1 mg/kg s.c.; for [^18F]FDG-PET SUV normalized to whole-brain uptake (SUVglob) / [^18F]FDG-PET glucose normalized SUV (SUVgluc): mean (SD)
Description: The dynamic PET recordings were histogrammed into six frames of 5 minutes each, and reconstructed with attenuation, decay, and scatter correction using the OSEM3D/SP-MAP algorithm (2 x OSEM iterations and 18 x MAP iterations) with a matrix size of 128 × 128 pixels, resulting in a final target resolution of 0.8 mm/pixel. Pre-processing of PET scans was performed using PMOD v4.2 (PMOD Technologies LLC, Zurich, Switzerland). The [^18F]FDG images were averaged across the six frames and then converted into standardized uptake values (SUV), whereupon the image was cropped to the head of the animal and automatically co-registered to a standard [^18F]FDG-PET template. We used Schiffer’s atlas ([Schiffer et al., 2006]) for parcellation of bilateral brain regions within the cortico-striato-thalamo-cortical (CSTC) circuit, i.e. bilateral nucleus accumbens (NAc), medial prefrontal cortex (mPFC), orbitofrontal cortex (OFC), hippocampus, striatum, thalamus, visual cortex, cerebellum as a comparator region, and whole brain. We selected these regions from the CSTC circuit based on a conceptual model holding that the thalamus acts as a filter/gatekeeper of sensory information, broadcasting to cortical regions that subserve conscious experience ([Wang et al., 2006]; [McAlonan et al., 2008]). Perturbation of this CSTC circuit is implicated in the action of psychedelic compounds ([Geyer and Vollenweider, 2008]; [Preller et al., 2019]). We scaled individual regional SUV results to the mean blood glucose levels measured during the recording session (SUVgluc) and to the global [^18F]FDG uptake (SUVglob).

[3] = Brain concentrations of harmine, DMT and metabolites by UHPLC-MS after s.c. harmine and/or DMT; details: for concentration at 95 min / concentration at 65 min: rat, subcutaneous
Description: Groups of (n = 6) rats received either saline, harmine (1 mg/kg), DMT (1 mg/kg), or harmine + DMT (1 mg/kg each) as subcutaneous injections, as indicated in Figure 1.
After 45 min, rats were sacrificed by decapitation, and the brains dissected into cerebellum and frontal cortex samples for radioactivity measurement and chemical analysis, thus 65 min after harmine + DMT.

serotonin 5-HT1A = test system: serotonin 5-HT1A; parameters: method as in ref Lyon et al., 1988; Pierce and Peroutka, 1989; McKenna et al., 1990; Keiser et al., 2009; Ray, 2010; details: ref Lyon et al., 1988; Pierce and Peroutka, 1989; McKenna et al., 1990; Keiser et al., 2009; Ray, 2010; cited from earlier work
rats = experiment: Behavioural observations in treated rats; format: in vivo, rat; details: in some DMT- (and harmine-) treated rats; not systematically assessed
[4] = target: T1, serotonin 5-HT2A receptors; experiment: Ex vivo occupancy at frontal cortex 5-HT2A receptors with [^3H]ketanserin (experiment 1); format: in vivo
Description: Groups of (n = 6) rats received either saline, harmine (1 mg/kg), DMT (1 mg/kg), or harmine + DMT (1 mg/kg each) as subcutaneous injections, as indicated in Figure 1. Approximately 5 minutes later, the animals were lightly anesthetized using (2% isoflurane in pure oxygen) and received [^3H]ketanserin (300 kBq; 740 MBq/µmol) as a bolus injection in 0.2 mL saline via a tail vein. […] At the conclusion of the PET recording, rats were sacrificed while still anesthetized, thus 95 min after drug administration. Terminal samples of cerebellum (non-binding reference tissue) and frontal cortex were transferred to preweighed 7 mL liquid scintillation vials, reweighed, and added with 0.9 mL of aqueous based solubilizer (Solvable, Perkin Elmer) for dissolution during 48 h at room temperature. Next, 7 mL of liquid scintillation counting cocktail (Ultima Gold™ XR, Perkin Elmer) was added to each sample, and the content of tritium (i.e., [^3H]ketanserin, cpm/mg) was measured by liquid scintillation counting (TRI-CARB, Perkin Elmer). We calculated the occupancy by DMT at frontal cortex 5-HT2A receptors for the three treatment groups relative to the specific binding ratio ([cortex-cerebellum]/cerebellum) for the control group.

CN(C)CCc1c[nH]c2ccccc12 [DMT, N,N-dimethyltryptamine]
IC50 ([1]; read-out: IC50 at 5-HT2A receptors in vitro): 75 to 360 nM
Ki ([1]; read-out: Ki at 5-HT2A receptors in vitro): 127 to 1200 nM
IC50 (5-HT2C receptors): 360 nM
Ki (5-HT2C receptors): 360 to 2630 nM
Occupancy at 5-HT2A sites ex vivo [2]: unable to detect any such occupancy
Time of peak DMT occupancy post-administration (brain 5-HT2A receptors): 0.5 to 1.5 h
Qualitative effect on brain [^18F]FDG uptake (SUVglob maps) (brain glucose metabolism; 1 mg/kg, separately or in combination): no conspicuous effects
Trend towards relative increase in SUVglob in hippocampus and thalamus (brain glucose metabolism; Experiment 1, 1 mg/kg): ~5%
[^18F]FDG-PET SUV normalized to whole-brain uptake (SUVglob) (brain glucose metabolism; NAc): 6.2 (0.36) SUV
[^18F]FDG-PET glucose normalized SUV (SUVgluc) (brain glucose metabolism; NAc, 1 mg/kg): 6.48 (0.93) SUV
[^18F]FDG-PET SUV normalized to whole-brain uptake (SUVglob) (brain glucose metabolism; OFC): 6.52 (0.15) SUV
[^18F]FDG-PET glucose normalized SUV (SUVgluc) (brain glucose metabolism; OFC, 1 mg/kg): 6.82 (0.84) SUV
[^18F]FDG-PET SUV normalized to whole-brain uptake (SUVglob) (brain glucose metabolism; cerebellum): 4.56 (0.23) SUV
[^18F]FDG-PET glucose normalized SUV (SUVgluc) (brain glucose metabolism; cerebellum, 1 mg/kg): 4.76 (0.64) SUV
[^18F]FDG-PET SUV normalized to whole-brain uptake (SUVglob) (brain glucose metabolism; hippocampus): 4.95 (0.21) SUV
[^18F]FDG-PET glucose normalized SUV (SUVgluc) (brain glucose metabolism; hippocampus, 1 mg/kg): 5.2 (0.85) SUV
[^18F]FDG-PET SUV normalized to whole-brain uptake (SUVglob) (brain glucose metabolism; mPFC): 6.95 (0.34) SUV
[^18F]FDG-PET glucose normalized SUV (SUVgluc) (brain glucose metabolism; mPFC, 1 mg/kg): 7.3 (1.24) SUV
[^18F]FDG-PET SUV normalized to whole-brain uptake (SUVglob) (brain glucose metabolism; striatum): 6.91 (0.24) SUV
[^18F]FDG-PET glucose normalized SUV (SUVgluc) (brain glucose metabolism; striatum, 1 mg/kg): 7.24 (1.07) SUV
[^18F]FDG-PET SUV normalized to whole-brain uptake (SUVglob) (brain glucose metabolism; thalamus): 6.33 (0.1) SUV
[^18F]FDG-PET glucose normalized SUV (SUVgluc) (brain glucose metabolism; thalamus, 1 mg/kg): 6.62 (0.86) SUV
[^18F]FDG-PET SUV normalized to whole-brain uptake (SUVglob) (brain glucose metabolism; visual cortex): 6.27 (0.13) SUV
[^18F]FDG-PET glucose normalized SUV (SUVgluc) (brain glucose metabolism; visual cortex, 1 mg/kg): 6.57 (0.99) SUV
[^18F]FDG-PET glucose normalized SUV (SUVgluc) (brain glucose metabolism; whole brain, 1 mg/kg): 5.8 (0.81) SUV
Percentage of total molar concentration of DMT and metabolites ([3]; Exp 1, group DMT, average of regions): 2.3%
Percentage of total molar concentration of DMT and metabolites ([3]; Exp 1, group DMT, cerebellum): 2.0%
Percentage of total molar concentration of DMT and metabolites ([3]; Exp 1, group DMT, front cort): 2.6%
Percentage of total molar concentration of DMT and metabolites ([3]; Exp 1, group Har + DMT, average of regions): 33.9%
Percentage of total molar concentration of DMT and metabolites ([3]; Exp 1, group Har + DMT, cerebellum): 32.9%
Percentage of total molar concentration of DMT and metabolites ([3]; Exp 1, group Har + DMT, front cort): 34.7%
Percentage of total molar concentration of DMT and metabolites ([3]; Exp 2, group Har + DMT, average of regions): 73.3%
Percentage of total molar concentration of DMT and metabolites ([3]; Exp 2, group Har + DMT, cerebellum): 71.1%
Percentage of total molar concentration of DMT and metabolites ([3]; Exp 2, group Har + DMT, front cort): 74.9%
DMT detectable in brain ([3]; Experiment 1, after DMT alone (1 mg/kg)): Only traces
Brain concentration ([3]; Experiment 1, cerebellum, group Har + DMT (1 mg/kg each s.c.), 95 min, mean (SD)): 105.1 (89.2) ng/g
Brain concentration ([3]; Experiment 1, frontal cortex, group Har + DMT (1 mg/kg each s.c.), 95 min, mean (SD)): 149.5 (123.2) ng/g
DMT/3-IAA ratio in brain ([3]; Experiment 1, harmine + DMT 1 mg/kg each): approximately 0.53
Brain concentration ([3]; Experiment 2, cerebellum, group Har + DMT (3 mg/kg each s.c.), 65 min, mean (SD)): 1472.7 (369.2) ng/g
Brain concentration ([3]; Experiment 2, frontal cortex, group Har + DMT (3 mg/kg each s.c.), 65 min, mean (SD)): 2122.7 (434.2) ng/g
DMT/3-IAA ratio in brain ([3]; Experiment 2, harmine + DMT 3 mg/kg each): ~2.83
Brain concentration after 3 mg/kg harmine + DMT relative to the lower harmine + DMT dose ([3]; Experiment 2 versus experiment 1): 14 fold
Higher DMT concentration in frontal cortex compared to cerebellum ([3]; Experiments 1 and 2, harmine + DMT): 50%
concentration at 95 min ([3]; brain (average of frontal cortex and cerebellum), 1 mg/kg, Molar concentration, Exp 1, group DMT, average of regions): 61.5 nM
concentration at 95 min ([3]; brain (average of frontal cortex and cerebellum), Molar concentration, Exp 1, group Har + DMT, average of regions): 676 nM
concentration at 65 min ([3]; brain (average of frontal cortex and cerebellum), Molar concentration, Exp 2, group Har + DMT, average of regions): 9550 nM
concentration at 95 min ([3]; cerebellum, 1 mg/kg, Brain concentration, Experiment 1, cerebellum, group DMT (1 mg/kg s.c.), 95 min, mean (SD)): 8.7 ng/g
concentration at 95 min ([3]; cerebellum, 1 mg/kg, Molar concentration, Exp 1, group DMT, cerebellum): 46 nM
concentration at 95 min ([3]; cerebellum, Brain concentration, Experiment 1, cerebellum, after harmine + DMT (1 mg/kg each)): 600 nM
concentration at 95 min ([3]; cerebellum, Brain concentration, Experiment 1, cerebellum, group Har (harmine 1 mg/kg s.c.), 95 min after drug, mean (SD)): 4.1 ng/g
concentration at 95 min ([3]; cerebellum, Brain concentration, Experiment 1, cerebellum, group Har + DMT (1 mg/kg each s.c.), 95 min, mean (SD)): 105 ng/g
concentration at 65 min ([3]; cerebellum, Brain concentration, Experiment 2, cerebellum, after harmine + DMT (3 mg/kg each)): 7800 nM
concentration at 65 min ([3]; cerebellum, Brain concentration, Experiment 2, cerebellum, group Har + DMT (3 mg/kg each s.c.), 65 min, mean (SD)): 1470 ng/g
concentration at 95 min ([3]; cerebellum, Molar concentration, Exp 1, group Har + DMT, cerebellum): 558 nM
concentration at 65 min ([3]; cerebellum, Molar concentration, Exp 2, group Har + DMT, cerebellum): 7820 nM
concentration at 95 min ([3]; frontal cortex, 1 mg/kg, Brain concentration, Experiment 1, frontal cortex, group DMT (1 mg/kg s.c.), 95 min, mean (SD)): 14.5 ng/g
concentration at 95 min ([3]; frontal cortex, 1 mg/kg, Molar concentration, Exp 1, group DMT, front cort): 77.1 nM
concentration at 95 min ([3]; frontal cortex, Brain concentration, Experiment 1, frontal cortex, after harmine + DMT (1 mg/kg each), 95 min): 800 nM
concentration at 95 min ([3]; frontal cortex, Brain concentration, Experiment 1, frontal cortex, group Har (harmine 1 mg/kg s.c.), 95 min, mean (SD)): 4.8 ng/g
concentration at 95 min ([3]; frontal cortex, Brain concentration, Experiment 1, frontal cortex, group Har + DMT (1 mg/kg each s.c.), 95 min, mean (SD)): 150 ng/g
concentration at 65 min ([3]; frontal cortex, Brain concentration, Experiment 2, frontal cortex, after harmine + DMT (3 mg/kg each), 65 min): ≤ 11300 nM
concentration at 65 min ([3]; frontal cortex, Brain concentration, Experiment 2, frontal cortex, group Har + DMT (3 mg/kg each s.c.), 65 min, mean (SD)): 2120 ng/g
concentration at 95 min ([3]; frontal cortex, Molar concentration, Exp 1, group Har + DMT, front cort): 794 nM
concentration at 65 min ([3]; frontal cortex, Molar concentration, Exp 2, group Har + DMT, front cort): 11300 nM
IC50 (serotonin 5-HT1A): 170 nM
Ki (serotonin 5-HT1A): 183 nM
Head twitch response (rats): observed the characteristic dose-dependent head twitch response
[^3H]ketanserin specific binding ratio in frontal cortex ([4]; Experiment 1, 1 mg/kg each s.c., 95 min after administration, (cortex-cerebellum)/cerebellum): 2.15 ± 0.39
Occupancy at 5-HT2A sites ex vivo ([4]; Experiment 1, [^3H]ketanserin): unable to detect any such occupancy
